Measured values from patent US20220127298A1, “THERMOSPOROTHRIX HAZAKENSIS-DERIVED ANTIBACTERIALLY ACTIVE SUBSTANCE” (KENNAN EISEI KOGYO CO., LTD., priority 2019, published 2022).
Values after ≈ are worked out from the molar mass of the structure shown.

How the values were obtained:
Assay type in all cases: cell-based
[1] = tested on: Bacillus subtilis NBRC 3134^T; experiment: Antibacterial spectrum test, paper disk assay; conditions: 50 μL of 1000 γ solution in methanol, LB agar, 37° C., 18 hours
Protocol: (§1) The antibacterial activity of HK-1 was assayed using a paper disk against the following bacterial bodies. A piece of ice was taken out of a glycerol stock of G. stearothermophilus stored at -80° C. and […] inoculated on the LB agar culture medium (see Example 1) with a toothpick. This was incubated at 60° C. for 18 hours. After the incubation, 1⁄2 platinum loop of the culture was harvested and suspended in 500 μL of sterile water. The bacterial suspension was diluted 10-fold with sterile water. Onto a LB agar culture medium, 100 μL of the diluted suspension was dropped and spread until it was dried up. A piece of paper disk was placed on a filter paper, onto which 50 μL of a HK-1 solution adjusted to 1000 γ with methanol was dropped and dried. Then the disk was placed on the agar culture medium coated with the bacterial body. After incubation at 60° C. for 18 hours, the diameter of the inhibition ring was measured. Assays were performed in the same manner as in 1 above, except that the incubation temperature was changed to 37° C.

[2] = tested on: Escherichia coli NBRC 102203^T; experiment: Antibacterial spectrum test, paper disk assay; conditions: 50 μL of 1000 γ solution in methanol, LB agar, 37° C., 18 hours
Protocol: as §1

Streptomyces sp. AGRN-8 = experiment: Antibacterial spectrum test, paper disk assay; conditions: 50 μL of 1000 γ solution in methanol, BM medium, 45° C., 2 days
Protocol: (§2) The antibacterial activity of HK-1 was assayed using a paper disk against the following bacterial bodies.
(§3) A piece of ice out of a glycerol stock of S. griseus stored at −80° C. was planarly inoculated on the YMPD agar culture medium with a toothpick. This was incubated at 28° C. for 5 days. After the incubation, a small amount of spore was scraped off with a swab, and planarly inoculated on the YMPD culture medium. A piece of paper disk was placed on a filter paper, onto which 50 μL of a HK-1 solution adjusted to 1000 γ with methanol was dropped and dried. Then the disk was placed on the agar culture medium coated with the bacterial body. After incubation at 28° C. for 4 days, the diameter of the inhibition ring was measured.
(§4) Assays were performed in the same manner as in 3 above, except that the incubation conditions were changed to BM culture medium, 45° C., and 2-day period.

Streptomyces sp. AGRN-9 = experiment: Antibacterial spectrum test, paper disk assay; conditions: 50 μL of 1000 γ solution in methanol, BM medium, 45° C., 2 days
Protocol: as §2, §3, §4

[3] = tested on: Bacillus subtilis NBRC 3134^T; experiment: Measurement of minimum inhibitory concentration, dilution method with liquid culture medium; conditions: NBRC3134, LB liquid medium, 37° C., 135 rpm, 18 hours, visual observation and OD600
Excerpt: The minimum inhibitory concentration (MIC) is one of the antibiotic susceptibility tests, and means the minimum concentration of an antimicrobial substance at which the visible growth of a microorganism can be inhibited. In the research field, the MIC measurement is used, for example, to compare the effects of a new antibiotic substance and a conventional substance, or to examine actions on several strains, and is regarded as an important criterion for evaluating antibiotic substances. The MIC of “HK-1” which was obtained hereunder as the antibacterial active substance was measured using the dilution method with a liquid culture medium.
A piece of ice out of a glycerol stock of G. stearothermophilus stored at −80° C. was planarly inoculated on the LB agar culture medium with a toothpick. This was incubated at 60° C. for 18 hours. One (1) cm^2 of the culture medium was excavated with a toothpick, placed into a long test tube containing 10 mL of a liquid LB culture medium, and subjected to a shaking culture at 60° C., and 300 rpm, for 18 hours. The culture solution was diluted with sterile water to about McF standard No. 1.
The preparation was performed in the same manner as in 1 above, only except that the temperature was changed to 37° C.
Two (2) mg of HK-1 was weighed out into a 2 mL Eppendorf tube using an electric balance. […]

[4] = tested on: Bacillus subtilis NBRC 3134^T; experiment: Heat resistance test A, antibacterial activity as index; conditions: 1000 γ solution, pH adjusted to 9, 98° C. for 5 min; FIG. 4-1
Protocol: (§5) Examples of a typical test for measuring the stability of a compound include pH stability test, as well as heat resistance test, and storage test. This information is also regarded as important in evaluating the compound as described above. Using the sample of HK-1 prepared in the above “3. Antibacterial activity test in changing pH”, experiments were carried out to examine whether the compound is stable or not using G. stearothermophilus and B. subtilis guided by the antibacterial activity as the index.
(§6) Three hundred (300) μL of the 1000 γ HK-1 solution (pH 9, and pH not adjusted) prepared in the above “3. Antibacterial activity test in changing pH” was dispensed into a 1 mL microtube. The opening of the tube was closed hermetically with parafilm and heated in the bath at 98° C. for 5 min. An assay was performed using the culture medium for assaying antibacterial activity prepared in “3. Antibacterial activity test in changing pH” above.

[5] = tested on: Geobacillus stearothermophilus ATCC 7953; experiment: as above; conditions: 1000 γ solution, pH adjusted to 9, 98° C. for 5 min; FIG. 4-1
Protocol: as §5, §6

[6] = tested on: Bacillus subtilis NBRC 3134^T; experiment: Heat resistance test B (storage), antibacterial activity as index; conditions: FIG. 4-2
Protocol: as §5
(§7) One (1) mL each of two samples prepared in the above “3. Antibacterial activity test in changing pH” was dispensed into two 1-mL micro tubes. The openings of total four tubes were closed hermetically with parafilm, and each one is shielded with an aluminum foil, and stored in a freezer set at −28° C., or an incubator set at 28° C. and 50° C. Each sample was assayed 1, 3, 6, 12, and 24 days after the initiation of the storage using the culture medium for assaying antibacterial activity prepared in “3. Antibacterial activity test in changing pH” above.

[7] = tested on: Geobacillus stearothermophilus ATCC 7953; experiment: as above; conditions: FIG. 4-3
Protocol: as §5, §7

[8] = pH not adjusted, storage at −28° C., 28° C., 50° C., 1 to 24 days
[9] = two samples (pH 9, pH not adjusted), stored at −28° C., 28° C. and 50° C., after 24 days

SMILES: COc1cc(OOc2cc(OC)c3c(c2-c2c(O)c(Cl)c(C)c4c2C(O)c2c(Cl)c(O)cc(O)c2C4=O)C(OC2OC(C)C(O)C2O)c2c(Cl)c(OC)c(Cl)c(C)c2C3=O)c(-c2c(O)c(Cl)c(C)c3c2C(O)c2c(Cl)c(O)cc(O)c2C3=O)c2c1C(=O)c1c(C)c(Cl)c(OC)c(Cl)c1C2OC1OC(C)C(O)C1O (centres unmarked) [HK-1]
- inhibition ring diameter [1]: 32.0 mm
- inhibition ring diameter [2]: 14.0 mm
- inhibition ring diameter (Streptomyces sp. AGRN-8): 16.0 mm
- inhibition ring diameter (Streptomyces sp. AGRN-9): 19.0 mm
- MIC [3]: 0.78 µg/mL (≈ 0.474 µM)
- antibacterial effect after heating at high temperature [4]: the antibacterial effect was not lost
- antibacterial effect after heating at high temperature [5]: the antibacterial effect was not lost
- difference in antibacterial activity due to the storage temperature [6, 8]: no significant difference
- antibacterial activity after storage [6, 9]: not lost
- difference in antibacterial activity due to the storage temperature [7, 8]: no significant difference
- antibacterial activity after storage [7, 9]: not lost
